From US20230031406A1, “COMPOUNDS AND COMPOSITIONS FOR TREATING CONDITIONS ASSOCIATED WITH NLRP ACTIVITY” (Novartis AG, priority 2018, published 2023)
Blank lines part the entries; values can stand above or below the compound they belong to.

Tests used:
[1] = test system: PMA-differentiated THP-1 cells; assay: hTHP-1 assay containing 10% fetal bovine serum (IL-1β production, Tables B5 and B6); format: cell-based, human
Method in brief: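 IL-1β release from PMA-differentiated THP-1 macrophage-like cells was triggered by 5 μM gramicidin for 2 h after 1 h compound exposure, then measured by HTRF.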

[2] = test system: PMA-differentiated THP-1 cells; assay: IL-1β production in PMA-differentiated THP-1 cells stimulated with gramicidin (hTHP-1 assay containing 2% fetal bovine serum; Procedures 1 and 2); format: cell-based, human
Method in brief: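 Compound titrations in 0.37% final DMSO were added to THP-1 cells that had been plated after 16-18 h PMA treatment, 50,000 per well in 2% FBS. One hour later the cells received gramicidin (5 μM, 2 h) and were centrifuged. HTRF detected IL-1β in the collected supernatants.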

[3] = Homo sapiens, THP-1, read-out: hTHP-1 IC50 in 10% FBS, hTHP-1 assay containing 10% fetal bovine serum, Table B5
[4] = Homo sapiens, THP-1, read-out: hTHP-1 IC50 in 2% FBS, hTHP-1 assay containing 2% fetal bovine serum, Table B5

- IC50 ([1]; read-out: hTHP-1 IC50 in 10% FBS, hTHP-1 assay containing 10% fetal bovine serum, Table B5, listed as 796): 200 to 1000 nM
- IC50 ([2]; read-out: hTHP-1 IC50 in 2% FBS, hTHP-1 assay containing 2% fetal bovine serum, Table B5, listed as 796): 8 to 40 nM
SMILES: CCn1cc(F)c(S(N)(=O)=NC(=O)Nc2c(C)c(C(F)(F)F)nc3c2CC(C)C3)n1 (stereo not shown) [Compound 1101, N′-((3,6-dimethyl-2-(trifluoromethyl)-6,7-dihydro-5H-cyclopenta[b]pyridin-4-yl)carbamoyl)-1-ethyl-4-fluoro-1H-pyrazole-3-sulfonimidamide]

- IC50 ([1]; read-out: hTHP-1 IC50 in 10% FBS, hTHP-1 assay containing 10% fetal bovine serum, Table B5, listed as 795): 1000 to 5000 nM
- IC50 ([2]; read-out: hTHP-1 IC50 in 2% FBS, hTHP-1 assay containing 2% fetal bovine serum, Table B5, listed as 795): 1000 to 5000 nM
SMILES: CCn1cc(F)c(S(N)(=O)=NC(=O)Nc2c(C)c(C(F)(F)F)nc3c2C(C)CC3)n1 (stereo not shown) [Compound 1100, N′-((3,5-dimethyl-2-(trifluoromethyl)-6,7-dihydro-5H-cyclopenta[b]pyridin-4-yl)carbamoyl)-1-ethyl-4-fluoro-1H-pyrazole-3-sulfonimidamide]

- IC50 [1, 3]: 1000 to 5000 nM
- IC50 [2, 4]: 5000 to 30000 nM
SMILES: CCn1cc(F)c([S@](N)(=O)=NC(=O)Nc2c(C)c(C(F)(F)F)nc3c2[C@H](C)CC3)n1 (single isomer, unassigned) [Compound 1100a, (R, R) or (R, S)-N′-((3,5-dimethyl-2-(trifluoromethyl)-6,7-dihydro-5H-cyclopenta[b]pyridin-4-yl)carbamoyl)-1-ethyl-4-fluoro-1H-pyrazole-3-sulfonimidamide]

- IC50 [1, 3]: 40 to 200 nM
- IC50 [2, 4]: 40 to 200 nM
SMILES: CC(C)n1cc(F)c(S(N)(=O)=NC(=O)Nc2c3c(nc(C4CC4)c2C2CC2)CCC3)n1 (stereo not shown) [Compound 1103, N′-((2,3-dicyclopropyl-6,7-dihydro-5H-cyclopenta[b]pyridin-4-yl)carbamoyl)-4-fluoro-1-isopropyl-1H-pyrazole-3-sulfonimidamide]

- IC50 [1, 3]: 40 to 200 nM
- IC50 [2, 4]: 200 to 1000 nM
SMILES: CCn1cc(F)c([S@](N)(=O)=NC(=O)Nc2c(C)c(C(F)(F)F)nc3c2[C@@H](C)CC3)n1 (single isomer, unassigned) [Compound 1100b, (R, S) or (R, R)-N′-((3,5-dimethyl-2-(trifluoromethyl)-6,7-dihydro-5H-cyclopenta[b]pyridin-4-yl)carbamoyl)-1-ethyl-4-fluoro-1H-pyrazole-3-sulfonimidamide]

- IC50 ([1]; read-out: hTHP-1 IC50 in 10% FBS, hTHP-1 assay containing 10% fetal bovine serum, Table B5, listed as 815): 8 to 40 nM
- IC50 ([2]; read-out: hTHP-1 IC50 in 2% FBS, hTHP-1 assay containing 2% fetal bovine serum, Table B5, listed as 815): 40 to 200 nM
SMILES: CC(C)n1cc(F)c(S(N)(=O)=NC(=O)Nc2c3c(nc(C4CC4)c2C2CC2)CCC3)n1 (single isomer, unassigned) [Compound 1103a, (R) or (S)-N′-((2,3-dicyclopropyl-6,7-dihydro-5H-cyclopenta[b]pyridin-4-yl)carbamoyl)-4-fluoro-1-isopropyl-1H-pyrazole-3-sulfonimidamide]

- IC50 ([1]; read-out: hTHP-1 IC50 in 10% FBS, hTHP-1 assay containing 10% fetal bovine serum, Table B5, listed as 814): 1000 to 5000 nM
- IC50 ([2]; read-out: hTHP-1 IC50 in 2% FBS, hTHP-1 assay containing 2% fetal bovine serum, Table B5, listed as 814): 1000 to 5000 nM
SMILES: CC(C)n1cc(F)c(S(N)(=O)=NC(=O)Nc2c3c(nc4c2CCC42CC2)CCC3)n1 (single isomer, unassigned) [Compound 1102b, (S) or (R)-4-Fluoro-1-isopropyl-N′-((1′,5′,6′,7′-tetrahydro-2′H-spiro [cyclopropane-1,3′-dicyclopenta[b,e]pyridin]-8′-yl)carbamoyl)-1H-pyrazole-3-sulfonimidamide]

- IC50 ([1]; read-out: hTHP-1 IC50 in 10% FBS, hTHP-1 assay containing 10% fetal bovine serum, Table B5, listed as 813): 8 to 40 nM
- IC50 ([2]; read-out: hTHP-1 IC50 in 2% FBS, hTHP-1 assay containing 2% fetal bovine serum, Table B5, listed as 813): 8 to 40 nM
SMILES: CC(C)n1cc(F)c(S(N)(=O)=NC(=O)Nc2c3c(nc4c2CCC42CC2)CCC3)n1 (single isomer, unassigned) [Compound 1102a, (R) or (S)-4-Fluoro-1-isopropyl-N′-((1′,5′,6′,7′-tetrahydro-2′H-spiro [cyclopropane-1,3′-dicyclopenta[b,e]pyridin]-8′-yl)carbamoyl)-1H-pyrazole-3-sulfonimidamide]

- IC50 ([1]; read-out: hTHP-1 IC50 in 10% FBS, hTHP-1 assay containing 10% fetal bovine serum, Table B5, listed as 822): 1000 to 5000 nM
- IC50 ([2]; read-out: hTHP-1 IC50 in 2% FBS, hTHP-1 assay containing 2% fetal bovine serum, Table B5, listed as 822): 1000 to 5000 nM
SMILES: CCn1cc(F)c(S(N)(=O)=NC(=O)Nc2c(C)c(C(F)(F)F)nc3c2CC(C)C3)n1 (single isomer, unassigned) [Compound 1101b, (S, R) or (S, S)-N′-((3,6-dimethyl-2-(trifluoromethyl)-6,7-dihydro-5H-cyclopenta[b]pyridin-4-yl)carbamoyl)-1-ethyl-4-fluoro-1H-pyrazole-3-sulfonimidamide]

- IC50 ([1]; read-out: hTHP-1 IC50 in 10% FBS, hTHP-1 assay containing 10% fetal bovine serum, Table B5, listed as 819): 5000 to 30000 nM
- IC50 ([2]; read-out: hTHP-1 IC50 in 2% FBS, hTHP-1 assay containing 2% fetal bovine serum, Table B5, listed as 819): 5000 to 30000 nM
SMILES: CCn1cc(F)c(S(N)(=O)=NC(=O)Nc2c(C)c(C(F)(F)F)nc3c2C(C)CC3)n1 (single isomer, unassigned) [Compound 1100c, (S, R) or (S, S)-N′-((3,5-dimethyl-2-(trifluoromethyl)-6,7-dihydro-5H-cyclopenta[b]pyridin-4-yl)carbamoyl)-1-ethyl-4-fluoro-1H-pyrazole-3-sulfonimidamide]

- IC50 ([1]; read-out: hTHP-1 IC50 in 10% FBS, hTHP-1 assay containing 10% fetal bovine serum, Table B5, listed as 816): 1000 to 5000 nM
- IC50 ([2]; read-out: hTHP-1 IC50 in 2% FBS, hTHP-1 assay containing 2% fetal bovine serum, Table B5, listed as 816): 5000 to 30000 nM
SMILES: CC(C)n1cc(F)c(S(N)(=O)=NC(=O)Nc2c3c(nc(C4CC4)c2C2CC2)CCC3)n1 (single isomer, unassigned) [Compound 1103b, (S) or (R)-N′-((2,3-dicyclopropyl-6,7-dihydro-5H-cyclopenta[b]pyridin-4-yl)carbamoyl)-4-fluoro-1-isopropyl-1H-pyrazole-3-sulfonimidamide]

- IC50 [1, 3]: 8 to 40 nM
- IC50 [2, 4]: 8 to 40 nM
SMILES: CC(C)n1cc(F)c(S(N)(=O)=NC(=O)Nc2c3c(nc4c2CCC42CC2)CCC3)n1 (stereo not shown) [Compound 1102, 4-Fluoro-1-isopropyl-N′-((1′,5′,6′,7′-tetrahydro-2′H-spiro [cyclopropane-1,3′-dicyclopenta[b,e]pyridin]-8′-yl)carbamoyl)-1H-pyrazole-3-sulfonimidamide]

- IC50 ([1]; read-out: hTHP-1 IC50 in 10% FBS, hTHP-1 assay containing 10% fetal bovine serum, Table B5, listed as 823): 5000 to 30000 nM
- IC50 ([2]; read-out: hTHP-1 IC50 in 2% FBS, hTHP-1 assay containing 2% fetal bovine serum, Table B5, listed as 823): 5000 to 30000 nM
SMILES: CCn1cc(F)c(S(N)(=O)=NC(=O)Nc2c(C)c(C(F)(F)F)nc3c2CC(C)C3)n1 (single isomer, unassigned) [Compound 1101c, (S, S) or (S, R)-N′-((3,6-dimethyl-2-(trifluoromethyl)-6,7-dihydro-5H-cyclopenta[b]pyridin-4-yl)carbamoyl)-1-ethyl-4-fluoro-1H-pyrazole-3-sulfonimidamide]

- IC50 ([1]; Homo sapiens, THP-1, read-out: hTHP-1 IC50 in 10% FBS, 10% fetal bovine serum, Table B5, value printed as a bound, not a class symbol): > 30000 nM
- IC50 ([2]; Homo sapiens, THP-1, read-out: hTHP-1 IC50 in 2% FBS, 2% fetal bovine serum, Table B5, value printed as a bound, not a class symbol): > 30000 nM
SMILES: CCn1cc(F)c(S(N)(=O)=NC(=O)Nc2c(C)c(C(F)(F)F)nc3c2C(C)CC3)n1 (single isomer, unassigned) [Compound 1100d, (S, S) or (S, R)-N′-((3,5-dimethyl-2-(trifluoromethyl)-6,7-dihydro-5H-cyclopenta[b]pyridin-4-yl)carbamoyl)-1-ethyl-4-fluoro-1H-pyrazole-3-sulfonimidamide]
